Source: PubChem BioAssay (NCI)
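GI50 = concentration required for 50% inhibition of growth. TGI: concentration producing complete growth inhibition.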

Legend:
Experiment in all cases: inhibition of tumour cell growth, NCI panel, 384-well format
[1] = test system: A498 renal
[2] = test system: A549 NSCLC
[3] = test system: ACHN renal
[4] = test system: BT-549 breast
[5] = test system: CAKI-1 renal
[6] = test system: CCRF-CEM leukemia
[7] = test system: COLO 205 colon
[8] = test system: EKVX NSCLC
[9] = test system: HCC-2998 colon
[10] = test system: HCT-15 colon
[11] = test system: HL-60(TB) leukemia
[12] = test system: HOP-62 NSCLC
[13] = test system: HOP-92 NSCLC
[14] = test system: HS 578T breast
[15] = test system: HT29 colon
[16] = test system: IGROV1 ovarian
[17] = test system: K-562 leukemia
[18] = test system: KM12 colon
[19] = test system: LOX IMVI melanoma
[20] = test system: M14 melanoma
[21] = test system: MALME-3M melanoma
[22] = test system: MCF7 breast
[23] = test system: MDA-MB-231 breast
[24] = test system: MDA-MB-435 melanoma
[25] = test system: MDA-MB-468 breast
[26] = test system: NCI-H226 lung
[27] = test system: NCI-H23 lung
[28] = test system: NCI-H322M lung
[29] = test system: NCI-H460 NSCLC
[30] = test system: NCI-H522 lung
[31] = test system: NCI/ADR-RES ovarian
[32] = test system: OVCAR-3 ovarian
[33] = test system: OVCAR-8 ovarian
[34] = test system: PC-3 prostate
[35] = test system: RPMI-8226 leukemia
[36] = test system: RXF 393 renal
[37] = test system: SF-268 CNS
[38] = test system: SF-295 CNS
[39] = test system: SF-539 CNS
[40] = test system: SK-MEL-28 melanoma
[41] = test system: SK-MEL-5 melanoma
[42] = test system: SN12C renal
[43] = test system: SNB-19 CNS
[44] = test system: SNB-75 CNS
[45] = test system: T-47D breast
[46] = test system: TK-10 renal
[47] = test system: UACC-62 melanoma

COc1ccc([C@@H](O)c2cc(-c3ncnc4cc(N5CCOCC5)ccc34)c(F)cc2Cl)nn1
GI50 [1]: 0.372 µM | TGI [1]: 1.99 µM | GI50 [2]: 2.6 µM | TGI [2]: 12.3 µM | GI50 [3]: 2.38 µM | TGI [3]: 16.5 µM | GI50 [4]: 1.19 µM | TGI [4]: 9.64 µM | GI50 [5]: 1.19 µM | TGI [5]: 16 µM | GI50 [6]: 2.2 µM | TGI [6]: 7 µM | GI50 [7]: 3.52 µM | TGI [7]: 11.1 µM | GI50 [8]: 1.54 µM | TGI [8]: 10.7 µM | GI50 [9]: 3.21 µM | TGI [9]: 11.4 µM | GI50 [10]: 3.49 µM | TGI [10]: 15 µM | GI50 [11]: 0.522 µM | TGI [11]: 1.94 µM | GI50 [12]: 4.86 µM | TGI [12]: 26 µM | GI50 [13]: 0.583 µM | TGI [13]: 5.19 µM | GI50 [14]: 0.864 µM | TGI [14]: 3.7 µM | GI50 [15]: 3.36 µM | TGI [15]: 16.3 µM | GI50 [16]: 0.682 µM | TGI [16]: 2.45 µM | GI50 [17]: 3.55 µM | TGI [17]: 22 µM | GI50 [18]: 5.81 µM | TGI [18]: 19 µM | GI50 [19]: 1.81 µM | TGI [19]: 4.44 µM | GI50 [20]: 4.23 µM | TGI [20]: 16.9 µM | GI50 [21]: 1.66 µM | TGI [21]: 10.7 µM | GI50 [22]: 0.843 µM | TGI [22]: 10.4 µM | GI50 [23]: 3.52 µM | TGI [23]: 37.4 µM | GI50 [24]: 5.07 µM | TGI [24]: 20.6 µM | GI50 [25]: 1.03 µM | TGI [25]: 4.31 µM | GI50 [26]: 3.64 µM | TGI [26]: 24.6 µM | GI50 [27]: 2.49 µM | TGI [27]: 14.9 µM | GI50 [28]: 3.88 µM | TGI [28]: 21 µM | GI50 [29]: 2.19 µM | TGI [29]: 13.1 µM | GI50 [30]: 1.29 µM | TGI [30]: 8.26 µM | GI50 [31]: 3.97 µM | TGI [31]: 17.6 µM | GI50 [32]: 1.17 µM | TGI [32]: 9.62 µM | GI50 [33]: 3.97 µM | TGI [33]: 22.4 µM | GI50 [34]: 0.889 µM | TGI [34]: 11.1 µM | GI50 [35]: 1.09 µM | TGI [35]: 2.86 µM | GI50 [36]: 0.553 µM | TGI [36]: 3.3 µM | GI50 [37]: 6.38 µM | TGI [37]: 26.8 µM | GI50 [38]: 1.87 µM | TGI [38]: 12.6 µM | GI50 [39]: 3.38 µM | TGI [39]: 28.4 µM | GI50 [40]: 2.39 µM | TGI [40]: 27.8 µM | GI50 [41]: 1.61 µM | TGI [41]: 5.92 µM | GI50 [42]: 1.47 µM | TGI [42]: 17.1 µM | GI50 [43]: 7.21 µM | TGI [43]: 28.3 µM | GI50 [44]: 0.668 µM | TGI [44]: 3.15 µM | GI50 [45]: 0.531 µM | TGI [45]: 2.61 µM | GI50 [46]: 2.79 µM | TGI [46]: 14.6 µM | GI50 [47]: 1.16 µM | TGI [47]: 11.8 µM
